Laboratory results as given in ChEMBL document CHEMBL5260811, “Drug development against tuberculosis: Impact of alkaloids” (Eur J Med Chem, 2017).
Values after ≈ are worked out from the molar mass of the structure shown.

The compounds below were run on Mycolicibacterium smegmatis (assay: Antimycobacterial activity against Mycobacterium smegmatis). Conditions: not given.
Type: functional
`C1=C\CCCCN2C[C@H]3CCCC/C=C\CCCCN4CC[C@@H]([C@H](CCCCCC/1)C4)[C@H](C3)C2` gave an IC of 2.5 µg/mL.
Compound `C1=C\CCCC[C@@H]2CN3CCCC/C=C\CCCC[C@H]4C[C@H](CN(CCCCCC/1)C4)[C@H]2CC3` has an IC of 1 µg/mL.
For `OC1CCCC/C=C\CCCC[C@@H]2CN3CCCC/C=C\CCCC[C@H]4C[C@H](CN(C1)C4)[C@H]2CC3` (stereo not given in full), the IC was 12.5 µg/mL.

Same assay, conditions: Mycolicibacterium smegmatis
With `Nc1ccccc1-c1c[nH]c(C(=O)O)c1` the MIC was 0.5 µg/mL (≈ 2.47 µM).
With `O=C(/C=C/C=C/c1ccc2c(c1)OCO2)N1CCCCC1` [PIPERINE] the MIC was 128 µg/mL (≈ 449 µM).
For `O=CNCCCCC(NC(=O)C1COC(c2ccccc2O)=N1)C(=O)O` (stereo not given) [TRANSVALENCIN Z], the MIC was 0.125 µg/mL (≈ 0.344 µM).

The compounds below were run on Mycobacterium tuberculosis (assay: Antimycobacterial activity against Mycobacterium tuberculosis H37Rv). Conditions: not given.
Type: functional
Work on `CC1=CCC[C@H](C)[C@@]1(C)CC/C(C)=C/CC/C(C)=C/Cn1c[n+](C)c2ncnc(N)c21` yielded an MIC of 3.13 µg/mL.
With `O=C1c2c(O)ccnc2-c2nccc3c2c1nc1ccccc13` the MIC was greater than 42 µM.
`COC1=CC(=O)c2nc3ccccc3c3ccnc1c23` was tested, and the MIC was 1.5 µM.
Work on `CCSC1=CC(=O)c2nc3ccccc3c3ccnc1c23` yielded an MIC of 0.34 µM.
`CCCCCCCCC/C=C/C=C/C(=O)NCC(C)C` gave an MIC of 6.2 µg/mL.
In the case of `c1cc2c[n+](c1)CCCCCCCCCCCCCc1ccc[n+](c1)CCCCCCCCCCCCC2`, the MIC is reported as 4 µg/mL.
Work on `Cc1ccc(SC2=CC(=O)c3nc4ccccc4c(C)c3C2=O)cc1` yielded an MIC of 2.2 µM.
With `O=C1C(c2ccc(O)cc2)=C2C(=C(c3ccc(O)cc3)C(=O)N2CCc2ccc(O)cc2)c2ccc(O)cc21` the MIC was 4 µg/mL.
`CN1C=NC2=C(N)NCNC21` (stereo not given) was tested, and the MIC was 6.25 µg/mL.
With `CO/N=c1\[nH]cnc2c1[n+](C/C=C(\C)CC/C=C(\C)CCC1CCCCC1)cn2C.[Cl-]` the MIC was 1.56 µg/mL.
`O=C1C(c2ccc(O)cc2)=C(c2ccc(O)cc2)/C(=C/c2ccc(O)cc2)N1CCc1ccc(O)cc1` gave an MIC of 32 µg/mL.
Work on `C=C1CCCC(C)(C)[C@H]1CC/C(C)=C/CC/C(C)=C/C[n+]1cn(C)c2nc[nH]/c(=N\OC)c21.[Cl-]` yielded an MIC of 3 µg/mL.
With `CC(=O)C[C@@H]1C[C@H]2[C@H]([C@@H]3c4[nH]c5ccccc5c4CCN13)[C@H](O)C13CC/C=C\CCCCN1C[C@@]21CC/C=C\CCCCN[C@@H]31` the MIC was 5.2 µg/mL.
`C=C1CC[C@@]2(C#N)[C@H]3[C@H](CC[C@@H]2C)[C@@H](C)C[C@@H](CC(C)(C)C)[C@H]13` gave an MIC of 2 µg/mL.
Compound `Oc1ccc2[nH]c3c(C4=C[C@@]5(O)CC/C=C\CCCCN6CC[C@@H]4C4(C[C@@H]7/C=C\CCCCN7C45)C6)nccc3c2c1` (stereo not given in full) has an MIC of 1.9 µg/mL.
For `C=C1CC[C@@]2(C#N)[C@H]3[C@H](CC[C@@H]2C)[C@@H](C)C[C@@H](CC(C)(C)NC(=O)CN2CCC2=O)[C@H]13`, the MIC was 15.3 µg/mL.
`CC(=O)C[C@H]1C[C@H]2[C@H]([C@@H]3c4[nH]c5ccccc5c4CCN13)[C@H](O)C13CC/C=C\CCCCN1C[C@@]21CC/C=C\CCCCN[C@@H]31` gave an MIC of 1.5 µg/mL.
Compound `CO/N=c1\[nH]cnc2c1[n+](C/C=C(\C)CC/C=C(\C)CC/C=C(\C)CCC=C(C)C)cn2C.[Cl-]` has an MIC of 3.13 µg/mL.
`Cc1ccc(SC2=CC(=O)c3nc4ccccc4c4ccnc2c34)cc1` showed an MIC of 9 µM.
Compound `COc1c(O)ccc2c1cnc1c3cc4c(cc3ccc21)OCO4` [DECARINE] has an MIC of 3.1 µg/mL.
For `CC[C@@H](CO)NCCN[C@@H](CC)CO` [ETHAMBUTOL], the MIC was 5.61 µg/mL.

The compounds below were run on Mycobacterium sp. (assay: Antimycobacterial activity against Mycobacterium sp.). Conditions: not given.
Type: functional
`COc1cnc2c3c(nccc13)C(=O)c1ccccc1-2` showed an MIC of 1.56 µg/mL (≈ 5.95 µM).
Compound `c1ccc2c(c1)CC1NCCc3cc4c(c-2c31)OCO4` (stereo not given) has an MIC of 12 µg/mL (≈ 45.2 µM).
`CC[C@H]1C[C@H]2C[N@]3CCc4c([nH]c5ccc(OC)cc45)[C@](C(=O)OC)(C2)[C@H]13` was tested, and the MIC was 50 µg/mL (≈ 136 µM).
Compound `CC[C@H]1C[C@H]2C[C@H]3c4[nH]c5ccc(OC)cc5c4CCN(C2)C13` has an MIC of 50 µg/mL (≈ 161 µM).
In the case of `Oc1ccc2c(c1)CC1NCCc3cc4c(c-2c31)OCO4` (stereo not given), the MIC is reported as 6 µg/mL (≈ 21.3 µM).
In the case of `CC[C@H]1CN(C)[C@H]2Cc3c([nH]c4ccccc34)C(=O)C[C@@H]1[C@@H]2C(=O)OC`, the MIC is reported as 128 µg/mL (≈ 361 µM).
In the case of `COc1ccc2c(c1)CC1NCCc3cc4c(c-2c31)OCO4` (stereo not given), the MIC is reported as 12 µg/mL (≈ 40.6 µM).
Work on `Cc1ccnc2c1C(=O)c1ccccc1C2=O` [CLEISTOPHOLINE] yielded an MIC of 12.5 µg/mL (≈ 56 µM).
